Assay results published in publication PMC11267923, “Metagenome-derived SusD-homologs affiliated with Bacteroidota bind to synthetic polymers” (Applied and Environmental Microbiology, 2024).

Columns and labels:
[1] = molecular target: T1, SusD38489 (SusD38489Δ1–25); assay: SPR, Biacore T200, His-captured protein, single-cycle kinetics, […] fit; design: species or system uncultured Bacteroidota bacterium; conditions: 25 °C; 0.1 M potassium phosphate pH 7 reference buffer; one binding site
T1 construct: gene susD; Sec/SPII signal peptide 1-25 removed; C-terminal His6 from pET21a(+); expressed in E. coli BL21(DE3)

[2] = molecular target: T2, SusD1 (SusD1Δ1–22) (Prevotella sp. Sc00044, UniProt W5QTG3); assay: as above; assay type: binding
T2 construct: gene susD; Sec/SPII signal peptide 1-22 removed; C-terminal His6 from pET21a(+); expressed in E. coli BL21(DE3)
T2 sequence (W5QTG3 23-580 limits assumed, stated change not applied): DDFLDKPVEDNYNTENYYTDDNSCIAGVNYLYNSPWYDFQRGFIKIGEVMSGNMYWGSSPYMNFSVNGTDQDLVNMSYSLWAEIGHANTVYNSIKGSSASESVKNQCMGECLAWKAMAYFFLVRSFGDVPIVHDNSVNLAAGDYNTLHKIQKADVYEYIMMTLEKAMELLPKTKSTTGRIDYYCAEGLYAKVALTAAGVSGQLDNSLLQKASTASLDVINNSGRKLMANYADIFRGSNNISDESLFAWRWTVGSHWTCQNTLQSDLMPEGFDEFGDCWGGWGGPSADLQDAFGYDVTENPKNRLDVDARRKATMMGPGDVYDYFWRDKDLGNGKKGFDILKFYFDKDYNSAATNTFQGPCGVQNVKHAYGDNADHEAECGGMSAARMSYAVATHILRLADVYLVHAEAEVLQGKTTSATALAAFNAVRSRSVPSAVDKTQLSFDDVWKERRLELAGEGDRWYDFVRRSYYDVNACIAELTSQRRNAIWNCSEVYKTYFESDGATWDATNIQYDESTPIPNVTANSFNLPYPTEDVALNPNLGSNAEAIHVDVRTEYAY

O=C(OCCO)c1ccc(C(=O)OCCO)cc1 [BHET, Bis(2-Hydroxyethyl) terephthalate]
Kd [1]: 10 nM | Kd [2]: 0.3 nM
